From ChEMBL document CHEMBL5465560, “Selectivity Literature for EUbOPEN Chemogenomic Library” (2024)
Blank lines part the entries; values can stand above or below the compound they belong to.

Key:
[1] = target: T1, Tyrosine-protein kinase receptor TYRO3 (Homo sapiens) (UniProt Q06418); assay: Selectivity interaction (Upstate Kinase Profiler service (Millipore)) EUB0000056c TYRO3; details: at 1 µM
T1 sequence (whole entry): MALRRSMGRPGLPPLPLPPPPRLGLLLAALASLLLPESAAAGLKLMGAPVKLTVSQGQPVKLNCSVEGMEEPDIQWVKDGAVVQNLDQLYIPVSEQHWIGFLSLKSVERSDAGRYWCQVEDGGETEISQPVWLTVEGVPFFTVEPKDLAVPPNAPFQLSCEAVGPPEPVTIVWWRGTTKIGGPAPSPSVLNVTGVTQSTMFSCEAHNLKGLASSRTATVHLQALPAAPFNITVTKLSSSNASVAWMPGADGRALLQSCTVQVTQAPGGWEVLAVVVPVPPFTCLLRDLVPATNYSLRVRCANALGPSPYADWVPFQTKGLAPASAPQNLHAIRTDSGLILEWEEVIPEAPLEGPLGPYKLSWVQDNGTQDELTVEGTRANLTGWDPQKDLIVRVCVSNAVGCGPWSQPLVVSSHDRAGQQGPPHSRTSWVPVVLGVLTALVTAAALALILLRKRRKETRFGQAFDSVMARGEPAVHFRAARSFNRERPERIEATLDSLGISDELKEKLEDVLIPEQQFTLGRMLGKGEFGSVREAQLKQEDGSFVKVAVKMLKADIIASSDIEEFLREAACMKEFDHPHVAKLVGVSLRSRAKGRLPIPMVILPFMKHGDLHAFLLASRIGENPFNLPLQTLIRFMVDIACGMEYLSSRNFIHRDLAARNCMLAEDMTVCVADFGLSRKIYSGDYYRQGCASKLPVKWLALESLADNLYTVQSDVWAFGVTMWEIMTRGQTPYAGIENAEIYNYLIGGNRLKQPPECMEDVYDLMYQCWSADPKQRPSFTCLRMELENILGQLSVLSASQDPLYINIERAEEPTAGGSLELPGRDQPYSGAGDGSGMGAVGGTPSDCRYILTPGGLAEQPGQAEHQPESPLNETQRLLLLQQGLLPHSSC

[2] = target: Tyrosine-protein kinase Yes (Homo sapiens) (UniProt P07947); assay: Selectivity interaction (KinomeScan (DiscoverX)) EUB0000595a YES1; details: at 10 µM
Sequence of Tyrosine-protein kinase Yes (Homo sapiens) (P07947 2-543 limits assumed): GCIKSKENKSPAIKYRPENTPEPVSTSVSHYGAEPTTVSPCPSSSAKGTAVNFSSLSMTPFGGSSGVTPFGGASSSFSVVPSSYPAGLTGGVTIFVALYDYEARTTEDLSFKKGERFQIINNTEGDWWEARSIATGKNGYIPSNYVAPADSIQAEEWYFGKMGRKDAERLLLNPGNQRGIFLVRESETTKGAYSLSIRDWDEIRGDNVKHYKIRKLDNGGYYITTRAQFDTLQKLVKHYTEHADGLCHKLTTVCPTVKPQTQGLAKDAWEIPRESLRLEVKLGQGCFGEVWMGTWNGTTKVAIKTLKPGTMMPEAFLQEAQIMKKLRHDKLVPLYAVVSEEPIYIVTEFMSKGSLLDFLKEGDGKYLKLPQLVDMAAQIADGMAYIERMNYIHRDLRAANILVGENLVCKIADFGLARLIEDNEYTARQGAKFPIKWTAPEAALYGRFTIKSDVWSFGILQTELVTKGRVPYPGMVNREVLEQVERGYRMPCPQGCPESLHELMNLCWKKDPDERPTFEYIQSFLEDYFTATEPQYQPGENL

[3] = target: T2, Dual specificity mitogen-activated protein kinase kinase 3 (Homo sapiens) (UniProt P46734); assay: Selectivity interaction (KinomeScan (DiscoverX)) EUB0000229b MAP2K3; details: at 10 µM
T2 sequence (whole entry): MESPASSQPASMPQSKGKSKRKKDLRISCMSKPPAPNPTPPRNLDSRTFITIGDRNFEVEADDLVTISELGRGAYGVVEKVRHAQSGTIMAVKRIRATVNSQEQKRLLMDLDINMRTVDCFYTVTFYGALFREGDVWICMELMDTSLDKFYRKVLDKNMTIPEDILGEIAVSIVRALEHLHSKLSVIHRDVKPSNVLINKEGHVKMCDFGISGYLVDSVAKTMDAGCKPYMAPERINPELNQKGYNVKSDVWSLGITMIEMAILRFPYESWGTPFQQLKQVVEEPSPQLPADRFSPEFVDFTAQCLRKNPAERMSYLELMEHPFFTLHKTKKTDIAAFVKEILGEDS

[4] = target: T3, Mitogen-activated protein kinase kinase kinase 7 (Homo sapiens) (UniProt O43318); assay: Selectivity interaction (KinomeScan (DiscoverX)) EUB0000229b MAP3K7; details: at 10 µM
T3 sequence (whole entry): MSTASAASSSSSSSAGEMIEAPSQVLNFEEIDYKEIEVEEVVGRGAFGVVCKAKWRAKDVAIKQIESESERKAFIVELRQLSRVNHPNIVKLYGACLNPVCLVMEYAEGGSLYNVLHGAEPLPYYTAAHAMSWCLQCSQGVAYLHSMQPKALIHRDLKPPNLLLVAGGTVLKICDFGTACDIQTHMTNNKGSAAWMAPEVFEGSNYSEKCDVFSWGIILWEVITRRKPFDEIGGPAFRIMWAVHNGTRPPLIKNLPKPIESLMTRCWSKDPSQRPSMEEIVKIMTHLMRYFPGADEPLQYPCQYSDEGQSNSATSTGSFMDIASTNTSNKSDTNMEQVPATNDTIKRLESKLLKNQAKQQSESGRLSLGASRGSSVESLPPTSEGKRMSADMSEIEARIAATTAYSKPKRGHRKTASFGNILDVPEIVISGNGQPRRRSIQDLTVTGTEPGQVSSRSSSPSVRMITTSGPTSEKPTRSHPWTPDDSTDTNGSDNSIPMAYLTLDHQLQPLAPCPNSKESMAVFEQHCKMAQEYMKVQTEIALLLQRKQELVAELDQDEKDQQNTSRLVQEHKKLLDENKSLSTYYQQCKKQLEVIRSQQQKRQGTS

[5] = target: T4, Tyrosine-protein kinase ZAP-70 (Homo sapiens) (UniProt P43403); assay: Selectivity interaction (KinomeScan (DiscoverX)) EUB0000092b ZAP70; details: at 10 µM
T4 sequence (whole entry): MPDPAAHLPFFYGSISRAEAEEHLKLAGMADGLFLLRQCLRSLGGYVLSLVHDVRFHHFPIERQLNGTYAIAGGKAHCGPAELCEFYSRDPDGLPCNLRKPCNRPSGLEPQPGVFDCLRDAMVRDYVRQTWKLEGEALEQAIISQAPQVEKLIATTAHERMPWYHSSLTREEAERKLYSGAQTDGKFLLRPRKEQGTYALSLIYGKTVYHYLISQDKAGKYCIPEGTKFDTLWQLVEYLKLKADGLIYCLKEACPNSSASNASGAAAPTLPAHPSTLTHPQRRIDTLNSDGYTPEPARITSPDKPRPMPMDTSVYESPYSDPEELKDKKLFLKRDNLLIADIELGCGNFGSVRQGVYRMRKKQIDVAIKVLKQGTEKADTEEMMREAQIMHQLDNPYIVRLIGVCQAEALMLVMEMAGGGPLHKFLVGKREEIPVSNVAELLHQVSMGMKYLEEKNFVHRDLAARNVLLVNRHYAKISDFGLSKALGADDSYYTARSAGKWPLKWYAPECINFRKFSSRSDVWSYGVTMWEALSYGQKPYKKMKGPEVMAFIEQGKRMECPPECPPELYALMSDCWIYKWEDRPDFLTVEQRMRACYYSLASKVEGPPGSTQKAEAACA

% of inhibition [1]: 10%
SMILES: Cc1ccc(-c2ccc3c(ccc4sc5c(c43)NC[C@@H](C)NC5=O)n2)cn1

SMILES: COCC(=O)NC/C=C/c1ccc2ncnc(Nc3ccc(Oc4ccc(C)nc4)c(C)c3)c2c1 [CP-724714]
% of control [2]: 65%

SMILES: COc1cc(N(C)c2ccnc3ccc(C(F)(F)F)cc23)cc(OC)c1OC
% binding [3]: 72%
% binding [4]: 80%

SMILES: CCC(=O)N1CCN(c2ccc(-n3c(=O)ccc4cnc5ccc(-c6cnc7ccccc7c6)cc5c43)cc2C(F)(F)F)CC1
% of control [5]: 100%
